Results taken from US12290596B2, “Compositions and methods for the treatment of opioid overdose” (priority 2021, dated 2025).

How the values were obtained:
[1] = Two-period crossover pharmacokinetics of nalmefene 3 mg IN vs 1.0 mg IM (Example 12); conditions: human, plasma; for concentration at 0.5 h: 0.500 h
[2] = Phase 1 pharmacokinetic evaluation of nalmefene IN with and without Intravail vs IM injection
[3] = intramuscular, 1 mg, Median plasma concentration, Treatment B 1.0 mg IM
[4] = other: intranasal, 3 mg, Mean plasma concentration, Treatment A 3.0 mg IN
[5] = other: intranasal, 3 mg, Median plasma concentration, Treatment A 3.0 mg IN

## C=C1CC[C@@]2(O)[C@H]3Cc4ccc(O)c5c4[C@@]2(CCN3CC2CC2)[C@H]1O5 [Nalmefene, 17-cyclopropylmethyl-4,5α-epoxy-6-methylenemorphinan-3,14-diol]
[1]; [3]
  concentration at 0.5 h: 0.945 ng/mL
  concentration at 1 h: 0.829 ng/mL
  concentration at 2 h: 0.858 ng/mL
  concentration at 3 h: 0.818 ng/mL
  concentration at 4 h: 0.77 ng/mL
  concentration at 6 h: 0.673 ng/mL
  concentration at 8 h: 0.629 ng/mL
  concentration at 36 h: 0.0915 ng/mL
  concentration at 12 h: 0.516 ng/mL
  concentration at 18 h: 0.341 ng/mL
  concentration at 24 h: 0.203 ng/mL
  concentration at 48 h: 0.0436 ng/mL
[1]; other: intranasal (nasal spray), 3 mg, Plasma half-life, 3 mg IN
  half-life: ~11 h
[1]; other: intranasal, 3 mg, AUC0-5 min, GeoMean, Treatment A 3.0 mg IN (Test)
  AUC(0-t): 0.06 ng·h/mL
[1]; other: intranasal, 3 mg, AUC0-5 min, Treatment A: 3.0 mg nalmefene hydrochloride IN, Geo. Mean, n 66
  AUC(0-t): 0.0599 ng·h/mL
[1]; other: intranasal, 3 mg, AUC0-5 min, Treatment A: 3.0 mg nalmefene hydrochloride IN, Median, n 66
  AUC(0-t): 0.0546 ng·h/mL
[1]; other: intranasal, 3 mg, AUC0-10 min, GeoMean, Treatment A 3.0 mg IN (Test)
  AUC(0-t): 0.514 ng·h/mL
[1]; other: intranasal, 3 mg, AUC0-10 min, Treatment A: 3.0 mg nalmefene hydrochloride IN, Geo. Mean, n 66
  AUC(0-t): 0.523 ng·h/mL
[1]; other: intranasal, 3 mg, AUC0-10 min, Treatment A: 3.0 mg nalmefene hydrochloride IN, Mean, n 66
  AUC(0-t): 0.787 ng·h/mL
[1]; other: intranasal, 3 mg, AUC0-10 min, Treatment A: 3.0 mg nalmefene hydrochloride IN, Median, n 66
  AUC(0-t): 0.537 ng·h/mL
[1]; other: intranasal, 3 mg, AUC0-15 min, GeoMean, Treatment A 3.0 mg IN (Test)
  AUC(0-t): 1.19 ng·h/mL
[1]; other: intranasal, 3 mg, AUC0-15 min, Treatment A: 3.0 mg nalmefene hydrochloride IN, Geo. Mean, n 66
  AUC(0-t): 1.2 ng·h/mL
[1]; other: intranasal, 3 mg, AUC0-15 min, Treatment A: 3.0 mg nalmefene hydrochloride IN, Mean, n 66
  AUC(0-t): 1.6 ng·h/mL
[1]; other: intranasal, 3 mg, AUC0-15 min, Treatment A: 3.0 mg nalmefene hydrochloride IN, Median, n 66
  AUC(0-t): 1.19 ng·h/mL
[1]; other: intranasal, 3 mg, AUC0-20 min, GeoMean, Treatment A 3.0 mg IN (Test)
  AUC(0-t): 1.87 ng·h/mL
[1]; other: intranasal, 3 mg, AUC0-20 min, Treatment A: 3.0 mg nalmefene hydrochloride IN, Geo. Mean, n 66
  AUC(0-t): 1.89 ng·h/mL
[1]; other: intranasal, 3 mg, AUC0-20 min, Treatment A: 3.0 mg nalmefene hydrochloride IN, Mean, n 66
  AUC(0-t): 2.34 ng·h/mL
[1]; other: intranasal, 3 mg, AUC0-20 min, Treatment A: 3.0 mg nalmefene hydrochloride IN, Median, n 66
  AUC(0-t): 1.85 ng·h/mL
[1]; other: intranasal, 3 mg, AUC0-30 min, GeoMean, Treatment A 3.0 mg IN (Test)
  AUC(0-t): 3.04 ng·h/mL
[1]; other: intranasal, 3 mg, AUC0-30 min, Treatment A: 3.0 mg nalmefene hydrochloride IN, Geo. Mean, n 66
  AUC(0-t): 3.07 ng·h/mL
[1]; other: intranasal, 3 mg, AUC0-30 min, Treatment A: 3.0 mg nalmefene hydrochloride IN, Mean, n 66
  AUC(0-t): 3.55 ng·h/mL
[1]; other: intranasal, 3 mg, AUC0-30 min, Treatment A: 3.0 mg nalmefene hydrochloride IN, Median, n 66
  AUC(0-t): 3.04 ng·h/mL
[1]; other: intranasal, 3 mg, AUC0-[…], Treatment A: 3.0 mg nalmefene hydrochloride IN, Mean, n 66
  AUC(0-t): 0.0193 ng·h/mL
[1]; other: intranasal, 3 mg, AUCLast, GeoMean, Treatment A 3.0 mg IN (Test)
  AUC(0-t): 38.9 ng·h/mL
[1]; other: intranasal, 3 mg, AUCinf, GeoMean, Treatment A 3.0 mg IN (Test)
  AUC(0-inf): 40.3 ng·h/mL
[1]; other: intranasal, 3 mg, Cmax, GeoMean, Treatment A 3.0 mg IN (Test)
  Cmax: 10.3 ng/mL
[1]; [4]
  concentration at 0 h: 0.00146 ng/mL
  concentration at 0.5 h: 6.25 ng/mL
  concentration at 1 h: 4.64 ng/mL
  concentration at 2 h: 4.03 ng/mL
  concentration at 3 h: 3.17 ng/mL
  concentration at 4 h: 2.52 ng/mL
  concentration at 6 h: 1.69 ng/mL
  concentration at 8 h: 1.23 ng/mL
  concentration at 36 h: 0.171 ng/mL
  concentration at 12 h: 0.87 ng/mL
  concentration at 18 h: 0.529 ng/mL
  concentration at 24 h: 0.366 ng/mL
  concentration at 48 h: 0.0875 ng/mL
[1]; [5]
  concentration at 0 h: 0 ng/mL
  concentration at 0.5 h: 5.86 ng/mL
  concentration at 1 h: 4.68 ng/mL
  concentration at 2 h: 3.99 ng/mL
  concentration at 3 h: 3.13 ng/mL
  concentration at 4 h: 2.49 ng/mL
  concentration at 6 h: 1.65 ng/mL
  concentration at 8 h: 1.18 ng/mL
  concentration at 36 h: 0.165 ng/mL
  concentration at 12 h: 0.832 ng/mL
  concentration at 18 h: 0.518 ng/mL
  concentration at 24 h: 0.341 ng/mL
  concentration at 48 h: 0.0843 ng/mL
[2]; 1.5 mg IM
  AUCextrap, mean: 22.6%
  Cmax/D, mean: 1.12 ng/mL/mg
  Lambda z, mean: 0.094 h⁻¹
[2]; 1.5 mg IN
  AUCextrap, mean: 30.6%
  Cmax/D, mean: 0.646 ng/mL/mg
  Half-life, mean: 6.74 h
  Lambda z, mean: 0.131 h⁻¹
[2]; 3 mg IN
  AUCextrap, mean: 17.9%
  Cmax/D, mean: 0.731 ng/mL/mg
  Lambda z, mean: 0.101 h⁻¹
[2]; 3 mg plus […] Intravail IN
  AUCextrap, mean: 14.6%
  Cmax/D, mean: 1.65 ng/mL/mg
  Lambda z, mean: 0.117 h⁻¹
[2]; human, in vivo, 1.5 mg
  concentration at 0 h: 0 ng/mL
  concentration at 0.04 h: 0 ng/mL
  concentration at 0.08 h: 0 ng/mL
  concentration at 30 h: 0 ng/mL
  concentration at 36 h: 0 ng/mL
  concentration at 48 h: 0 ng/mL
  concentration at 60 h: 0 ng/mL
  concentration at 72 h: 0 ng/mL
[2]; human, in vivo, 3 mg
  concentration at 0 h: 0 ng/mL
  concentration at 0.04 h: 0 ng/mL
  concentration at 0.08 h: 0 ng/mL
  concentration at 48 h: 0 ng/mL
  concentration at 60 h: 0 ng/mL
  concentration at 72 h: 0 ng/mL
